From patent US11129845B2, “Compositions and methods for the delivery of nucleic acids” (CASE WESTERN RESERVE UNIVERSITY, priority 2014, dated 2021)

Columns and labels:
[1] = Nanoparticle diameter and polydispersity by dynamic light scattering (Malvern Zetasizer); format: physicochemical; conditions: for Nanoparticle diameter as measured by dynamic light scattering: siRNA-lipid complexes
Description: (§1) The cationic lipid carriers are dissolved in ethanol at a stock concentration of 2.5 mM, while all siRNA is reconstituted in nuclease-free water at a 0.25 μg/μL (18.8 μM) concentration. Nanoparticles are formulated by mixing the carriers with siRNA for a period of 30 min in RNase-free phosphate buffer saline (PBS) at pre-specified N/P ratios (N=number of protonable amines in lipid, P=number of phosphate groups in the siRNA). In preparing the lipoplexes, proper dilutions were made such that the volume ratio of ethanol:water was kept constant at 1:20. Minimizing the amount of ethanol is important because it is effective in dissolving lipids, thus inhibiting particle formation. The diameters (as determined by dynamic light scattering) and zeta potentials of all nanoparticles were analyzed using a Malvern Zetasizer instrument at pH=7.4. siRNA encapsulation efficiency was calculated using a RiboGreen fluorescence-based assay from Invitrogen, designed specifically for detection of free RNA at […] wavelengths of 480 and 520 nm, respectively. Nanoparticles were created with all carriers in the library so that final siRNA concentrations were 1.6 μg/mL. A linear standard curve was utilized to calculate the encapsulation efficiencies from signal intensities measured by a SpectraMax microplate reader (Molecular Devices).

luciferase reporter = assay: Luciferase reporter silencing in HT29-Luc cells; format: cell-based, human; conditions: HT29, N/P 18, 72 h post-transfection
Description: Gene silencing efficiency was investigated in the HT29-Luc cell line by analyzing the expression of a luciferase reporter after anti-Luc siRNA therapy. To perform this study, cancer cells were seeded in 12 well plates at a density of 20,000 cells per well. Transfections were conducted in fresh serum-free media with 100 nM of siRNA when the cells were 25% confluent. The cells continued to grow in normal growth media for an additional 48 and 72 h, at which point they were rinsed twice with PBS and lysed for protein collection. The lysis buffer was a component of a Promega Luciferase Assay kit designed for measuring luciferase expression in the cell lysate. Equally important, the lysis buffer was compatible with the BCA protein assay so that we were able to normalize the luciferase expression in our samples with total protein content. For this silencing study, all synthesized carriers were evaluated at N/P ratios of 8, 10, 12, 14, 16, 18, and 20 to determine the best transfection formulation. Relative luciferase expression was determined for each trial using a SpectraMax luminometer upon the addition of a light-inducing luciferin substrate to the collected protein.
The RNAi capabilities of each carrier were investigated by analyzing the silencing of a luciferase (Luc) reporter in HT29 cancer cells after anti-Luc siRNA therapy. To perform this study, we seeded HT29-Luc cells in 12 well plates at a density of 20,000 cells per well. When 25% confluency, the cells were incubated with fresh serum-free transfection media containing nanoparticles at a dose of 100 nM siRNA. After 4 hours, the media was replaced with fresh complete growth media, so that the cells could continue to grow for an additional 48-72 hours, at which point they were lysed for protein collection. The lysis buffer was compatible with the BCA protein assay so that we could normalize luciferase expression in our samples. Negative controls included cells that were treated with 1) particles encapsulating non-specific siRNA, 2) naked anti-Luc siRNA, or 3) plain serum-free media. Luciferase expression was determined using a Spectra Max luminometer upon the addition of a light-inducing substrate to the collected protein. A similar knockdown experiment was also conducted in non-cancerous CHO cells expressing a GFP reporter. Flow cytometry was utilized to assess the silencing efficiency of the ECO and ECL delivery systems in this cell line. Cytotoxicity of the carriers 48 hours post-transfection was also investigated in both cell lines using an MTT colorimetric assay. […] These RNAi silencing levels surpassed those obtained with a Lipofectamine RNAiMax commercial transfection agent.

[2] = system: HT29 colon carcinoma cells; assay: Cellular uptake of Alexa Fluor 488-siRNA via flow cytometry; format: cell-based, human; conditions: HT29, N/P=18, 4 h, 100 nM Alexa Fluor 488-siRNA
Description: Flow cytometry was used to investigate the cellular uptake of our delivery system in HT29 colon carcinoma cells. All carriers in the library were formulated into nanoparticles by condensing Alexa Fluor 488-labeled siRNA at the optimal N/P ratio determined by the above luciferase knockdown studies. Approximately 50,000 cancer cells were seeded in 6-well plates and allowed to grow until 30-50% confluence was reached. The cancer cells were transfected with a 100 nM siRNA dose in serum-free media. After 4 h, the transfection media were aspirated and the cells were washed twice with PBS. The cells were then trypsinized, collected, and fixed with 2% paraformaldehyde in PBS, prior to flow cytometric analysis.

[3] = Zeta-potential of siRNA-lipid complexes (Malvern Zetasizer); format: physicochemical
Description: as §1

CHO-GFP cells = format: cell-based, Chinese hamster
Description: Cytotoxicity of the carriers was investigated using an MTT colorimetric assay measuring cellular metabolic activity (Invitrogen). The transfection procedure was identical to that presented for the reporter knockdown studies above, except for the fact that 96 well plates were utilized instead, and seeded with 10,000 cells per well. After transfection, the cells were allowed to grow for an additional 48 h. At that point, they were incubated with MTT for 4 h, followed by an additional 4 hour incubation with an SDS-HCl solution to dissolve any insoluble formazan crystals formed by the reduction of MTT by NAD(P)H-dependent enzymes in the cells. The absorbance of each sample was measured at 570 nm using a SpectraMax microplate reader. Cellular viability was calculated by averaging the signal intensities over three replicates and then normalizing the results relative to the negative control data.
The RNAi capabilities of each carrier were investigated by analyzing the silencing of a luciferase (Luc) reporter in HT29 cancer cells after anti-Luc siRNA therapy. To perform this study, we seeded HT29-Luc cells in 12 well plates at a density of 20,000 cells per well. […] Luciferase expression was determined using a Spectra Max luminometer upon the addition of a light-inducing substrate to the collected protein. […]

SMILES	Polydispersity of siRNA-lipid complexes ([1]; N/P = 2)	Polydispersity of siRNA-lipid complexes ([1]; N/P = 5)	Polydispersity of siRNA-lipid complexes ([1]; N/P = 8)	Polydispersity of siRNA-lipid complexes ([1]; N/P = 10)	Polydispersity of siRNA-lipid complexes ([1]; N/P = 15)	Nanoparticle diameter as measured by dynamic light scattering ([1]; N/P = 2) [nm]	Nanoparticle diameter as measured by dynamic light scattering ([1]; N/P = 5) [nm]	Nanoparticle diameter as measured by dynamic light scattering ([1]; N/P = 8) [nm]	Nanoparticle diameter as measured by dynamic light scattering ([1]; N/P = 10) [nm]	Nanoparticle diameter as measured by dynamic light scattering ([1]; N/P = 15) [nm]	luciferase knockdown (transfection efficiency) (luciferase reporter) [%]	cellular uptake, mean fluorescence intensity (MFI) [2]	Zeta-potential of siRNA-lipid complexes ([3]; pH = 7.4, N/P = 2) [mV]	Zeta-potential of siRNA-lipid complexes ([3]; pH = 7.4, N/P = 5) [mV]	Zeta-potential of siRNA-lipid complexes ([3]; pH = 7.4, N/P = 8) [mV]	Zeta-potential of siRNA-lipid complexes ([3]; pH = 7.4, N/P = 10) [mV]	Zeta-potential of siRNA-lipid complexes ([3]; pH = 7.4, N/P = 15) [mV]	relative cell viability (MTT) (CHO-GFP cells) [%]
CCCCCCCC/C=C\CCCCCCCC(=O)NC(CS)C(=O)NC(Cc1cnc[nH]1)C(=O)NCCNC(=O)CCN(CCN)CCC(=O)NCCNC(=O)C(Cc1cnc[nH]1)NC(=O)C(CS)NC(=O)CCCCCCC/C=C\CCCCCCCC (centres unmarked) [EHCO]	0.276	0.195	0.165	0.122	0.161	480 ± 30	427 ± 25	380 ± 18	141 ± 15	51 ± 10	46.4±5.8	1957±208	−23.14 ± 2.47	−14.09 ± 1.88	5.54 ± 1.37	18.80 ± 1.02	22.68 ± 2.08	
CCCCC/C=C\C/C=C\CCCCCCCC(=O)NC(CS)C(=O)NC(Cc1cnc[nH]1)C(=O)NCCNC(=O)CCN(CCCNCCCCNCCCN)CCC(=O)NCCNC(=O)C(Cc1cnc[nH]1)NC(=O)C(CS)NC(=O)CCCCCCC/C=C\C/C=C\CCCCC (centres unmarked) [SHCLn]	0.246	0.183	0.174	0.114	0.163	559 ± 38	223 ± 23	119 ± 13	132 ± 15	75 ± 10		4414±413	−32.09 ± 1.65	24.02 ± 1.07	26.35 ± 1.40	25.59 ± 2.22	23.80 ± 2.95	83.3±4.22
CCCCC/C=C\C/C=C\CCCCCCCC(=O)NC(CS)C(=O)NC(Cc1cnc[nH]1)C(=O)NCCNC(=O)CCN(CCN)CCC(=O)NCCNC(=O)C(Cc1cnc[nH]1)NC(=O)C(CS)NC(=O)CCCCCCC/C=C\C/C=C\CCCCC (centres unmarked) [EHCLn]	0.299	0.197	0.167	0.112	0.127	403 ± 35	379 ± 28	227 ± 20	130 ± 14	60 ± 11			−23.73 ± 2.26	−17.04 ± 1.32	0.49 ± 1.17	11.34 ± 1.67	24.92 ± 2.89	
CCCCCCCC/C=C\CCCCCCCC(=O)NC(CS)C(=O)NC(Cc1cnc[nH]1)C(=O)NCCNC(=O)CCN(CCCNCCCCNCCCN)CCC(=O)NCCNC(=O)C(Cc1cnc[nH]1)NC(=O)C(CS)NC(=O)CCCCCCC/C=C\CCCCCCCC (centres unmarked) [SHCO]	0.238	0.192	0.189	0.154	0.124	441 ± 32	238 ± 27	139 ± 17	151 ± 16	46 ± 8		3580±244	−32.09 ± 1.65	−18.5 ± 2.43	18.32 ± 1.45	21.76 ± 2.31	23.94 ± 1.70	
